Reference: publication PMC11148772, “Inhibition of protein translational machinery in triple-negative breast cancer as a promising therapeutic strategy” (Cell Reports Medicine, 2024)

How the values were obtained:
[1] = tested on: MDA-MB-468 tumor xenograft; test: Subcutaneous tumor xenograft; assay type: in vivo, mouse; conditions: 50 mg/kg oral gavage, NSG mice
Procedure: (§1) Female NOD-Scid gamma (NSG, Homozygous for Prkdc, Hemizygous for Il2rg<tm1Wjl>) (Strain #005557) and Balb/cJ (Strain#000651) (7–8 weeks old) mice were purchased from the Jackson Laboratory and housed under standard laboratory conditions. The Institutional Animal Care & Use Program of Oregon Health and Science University approved the protocol (#IP00003247). MDA-MB-231 (3 x 10^6), MDA-MB-468 (5 x 10^6), 4T1 (1 x 10^5) and EMT6 (1 x 10^5) cells were suspended in 100 μL of 1x PBS and injected subcutaneously in each mouse. Tumor growth was monitored regularly and once the tumors reached approximately around 50–100 mm^3, treatment with SU056 (50 mg/kg body weight given by oral gavage, 5 days per week) was started. Tumor size and body weight were measured once a week. At the end of treatment, mice were euthanized via deep anesthesia followed by cervical dislocation. Tumors were excised and weighed. Tumor samples were processed for immunoblotting for different markers.

[2] = tested on: MDA-MB-231 tumor xenograft; test: Subcutaneous tumor xenograft; assay type: in vivo, mouse; conditions: 50 mg/kg oral gavage, NSG mice
Procedure: as §1

[3] = tested on: normal breast epithelial cells MCF12A; test: MTT cell viability assay; assay type: cell-based; conditions: Homo sapiens, MCF-12A, 48 h
Procedure: (§2) MDA-MB-231 (5000 cells per well), MDA-MB-468 (6000 cells per well), SUM159 (3000 cells per well), 4T1 (2000 cells per well), EMT6 (2000 cells per well), E0771 (3000 cells per well), MCF10A (5000 cells per well) and MCF12A (5000 cells per well) cells were seeded in 96-well culture plates. On the next day, cells were treated with either DMSO or indicated concentrations of SU056 for 48 h 3-(4,5-dimethylthiazol-2-yl)-2,5-diphenyltetrazolium bromide (MTT) (0.5 mg/mL) was dissolved in 1x PBS and 50 μL were added to each well and allowed to form formazan crystals (1–2 h) followed by removal of MTT. Formazan crystals were dissolved in DMSO and plates were scanned at 570nm using a Tecan multimode plate reader.
(§3) Data S1. SU056 induces cell cycle arrest and apoptotic cell death, related to Figure 1 A) The growth inhibitory effect of SU056 was evaluated using the MTT assay (0.5 mg/ml in 1x PBS). Normal breast epithelial cells (MCF10A and MCF12A) were plated in a 96 well plate. On the next day, cells were treated with vehicle (DMSO) alone or 0.005-50 μM of […]
(§4) SU056 in fresh medium. […]
(§5) SU056 treatment led to cell cycle arrest at the G2/M phase and induced cell death in TNBC cells. E) MDA-MB-231 and F) MDA-MB-468 cells were analyzed for cell death using Annexin V-FITC Apoptosis Assay kit. Cell lysates were analyzed for Bax and BCL-2 proteins. b-actin was probed to ensure equal protein loading. […]

[4] = tested on: normal breast epithelial cells MCF10A; test: MTT cell viability assay; assay type: cell-based; conditions: Homo sapiens, MCF-10A, 48 h
Procedure: as §2, §3, §4, §5

[5] = tested on: translation machinery molecules (RPLs, RPSs, eIFs) in MDA-MB-231-YB-1 knockdown cells; test: CETSA in YB-1 knockdown cells; assay type: binding, human; conditions: YB-1 knockdown vs scrambled control cells
Source text: In the second CETSA experiment with MDA-MB-231- YB-1 knockdown cells, the Orbitrap Eclipse Tribrid mass spectrometer parameters consisted of setting the cycle time at Top-speed at 1 s, the mass scan range set between 375 and 1800 m/z, and a mass resolution of 50,000. The normalized AGC target and maximum injection time was set to standard and auto respectively. The precursor ions were selected from highest to lowest charge state, sorted by the lowest m/z, and fragmented using Higher Energy Collisional Dissociation (HCD) with a fixed collisional energy of 38%. Dynamic exclusion was enabled for 60 s with a mass tolerance of ±10 ppm. The normalized AGC target set to 200% with a maximum injection time of 86 ms. MS2 fragments were detected in the Orbitrap with a mass resolution of 50,000 and scan range window of 110–1800 m/z.
Proteins were quantified using individual spectra matched peptides based on a sum-based bootstrap algorithm, which used the TMT reporter ion intensity after correcting for isotope impurities with Proteome Discoverer 2.4. The protein levels were compared between the vehicle and SU056 treated samples. The lowest temperature was used as a reference to calculate the log2 ratio of the soluble fraction signal at each temperature, and the signal at each temperature was compared to the […] temperature to estimate the percentage of signal lost in the soluble fraction. […]

4T1 tumor = test: Syngeneic mouse TNBC model; assay type: in vivo; conditions: 50 mg/kg oral gavage, Balb/cJ mice
Procedure: as §1

EMT6 tumor = test: Syngeneic mouse TNBC model; assay type: in vivo; conditions: 50 mg/kg oral gavage, Balb/cJ mice
Procedure: as §1

## O=C1OCC2=C1C(c1cccc(F)c1)c1cc3c(cc1N2CCO)OCO3 (centres unmarked) [SU056, 9-(3-fluorophenyl)-5-(2-hydroxyethyl)-6,9-dihydro-[1,3]dioxolo[4,5-g]furo[3,4-b]quinolin-8(5H)-one]
[1]
  primary tumor growth reduced compared with vehicle control: 49.8%
  tumor weight reduced compared with vehicle control: 35.1%
[2]
  tumor growth arrested compared to vehicle control: 48%
  tumor weight reduced compared with vehicle control: 44.4%
[3]
  IC50: 4.65 ± 2.25 µM
[4]
  IC50: 4.77 ± 1.61 µM
[5]
  thermal stability of translation machinery molecules (RPLs, RPSs, and eIFs): does not increase
4T1 tumor
  primary tumor load reduced compared with vehicle control: 45.53%
  tumor weight reduced compared with vehicle control: 61%
EMT6 tumor
  reduction in tumor weight: 42.53%
  tumor growth decreased in comparison to control: 37.47%
